Results taken from PMC10969742, “A Phase I Study of the Oral Dual-Acting Pan-PI3K/mTOR Inhibitor Bimiralisib in Patients with Advanced Solid Tumors” (Cancers, 2024).
Where two headings read alike, the source gives them in different places.

Experiment: Plasma pharmacokinetics of bimiralisib, non-compartmental analysis (LC-MS)
Type: in vivo, human
Conditions: for Cmax / Tmax / AUC(0-t): human, plasma, oral; for Cmax: read-out: Cmax Mean (%CV)
Method: Blood samples were collected to enable full PK profiling of bimiralisib. The PK samples were taken pre-dose and at 0.5, 1, 2, 4, 6, 8, and 24 h post-dosing in the three schedules, with additional timepoints depending on the schedule (48 h in the continuous schedule, 12, 16, and 48 h in intermittent schedule A and 12, 16, and 72 h in intermittent schedule B). PK sampling was repeated on cycle 1 Day 8 (continuous schedule: pre-dose and 1 h post-dose; intermittent schedules A and B: pre-dose and 0.5, 1, 2, 4, 6, 8, and 24 h post-dose), on cycle 1 Day 15 (continuous schedule: pre-dose and 0.5, 1, 2, 4, 6 and 8 h post-dose; intermittent schedules A and B: pre-dose and 4 h post-dose), and on cycle 2 Day 1 (continuous dosing: pre-dose and 1 h post-dose). Samples were sent to a central laboratory for analysis using liquid-chromatography mass spectrometry. The pharmacokinetics of bimiralisib were determined by non-compartmental analysis. Area under the concentration vs. time curve (AUC) was calculated using the linear up log down trapezoidal method. Accumulation was calculated as the ratio of cycle 1 on Day 15 AUC0–8h versus cycle 1 on Day -3 AUC0–8h.

`Nc1cc(C(F)(F)F)c(-c2nc(N3CCOCC3)nc(N3CCOCC3)n2)cn1` [bimiralisib, 5-(4,6-Dimorpholino-1,3,5-triazin-2-yl)-4-(trifluoromethyl)pyridin-2-amine] gave a Cmax (100 mg, Intermittent Dose Schedule B, 100 mg, Day 1, 7 patients) of 562 ng/mL, a Tmax (100 mg, Intermittent Dose Schedule B, 100 mg, Day 1, 7 patients, read-out: Tmax Median, (Range)) of 2 h and an AUC(0-t) (100 mg, Intermittent Dose Schedule B, 100 mg, Day 8, 6 patients, read-out: AUC0–8 Geometric Mean (%CV)) of 2880 ng·h/mL. It also gave a Cmax (100 mg, Intermittent Dose Schedule B, 100 mg, Day 8, 6 patients) of 714 ng/mL, a Tmax (100 mg, Intermittent Dose Schedule B, 100 mg, Day 8, 6 patients, read-out: Tmax Median, (Range)) of 1.5 h and an AUC(0-t) (100 mg, Intermittent Dose Schedule B, 100 mg, Day 8, n = 4, read-out: AUC0–24 Geometric Mean (%CV)) of 6200 ng·h/mL. The AUC(0-t) (120 mg, Continuous Dosing, 120 mg, Day 1, 5 patients, read-out: AUC0–8 Geometric Mean (%CV)) was 2990 ng·h/mL, the AUC(0-t) (120 mg, Continuous Dosing, 120 mg, Day 1, 5 patients, read-out: AUC0–24 Geometric Mean (%CV)) was 7600 ng·h/mL and the Cmax (120 mg, Continuous Dosing, 120 mg, Day 1, 5 patients) was 876 ng/mL. For the same molecule, the Tmax (120 mg, Continuous Dosing, 120 mg, Day 1, 5 patients, read-out: Tmax Median, (Range)) was 2 h, the AUC(0-t) (120 mg, Continuous Dosing, 120 mg, Day 15, 1 patient, read-out: AUC0–8 Geometric Mean (%CV)) was 6430 ng·h/mL and the Cmax (120 mg, Continuous Dosing, 120 mg, Day 15, 1 patient) was 982 ng/mL. For the same molecule, the Tmax (120 mg, Continuous Dosing, 120 mg, Day 15, 1 patient, read-out: Tmax Median, (Range)) was 8 h, the AUC(0-t) (120 mg, Intermittent Dose Schedule A, 120 mg, Day 8, 3 patients, read-out: AUC0–8 Geometric Mean (%CV)) was 3710 ng·h/mL and the AUC(0-t) (120 mg, Intermittent Dose Schedule A, 120 mg, Day 8, 3 patients, read-out: AUC0–24 Geometric Mean (%CV)) was 8940 ng·h/mL. It also gave a Cmax (120 mg, Intermittent Dose Schedule A, 120 mg, Day 8, 3 patients) of 872 ng/mL, a Tmax (120 mg, Intermittent Dose Schedule A, 120 mg, Day 8, 3 patients, read-out: Tmax Median, (Range)) of 1 h and an AUC(0-t) (120 mg, Intermittent Dose Schedule A, 120 mg, Day -3, 4 patients, read-out: AUC0–8 Geometric Mean (%CV)) of 2590 ng·h/mL. For the same molecule, the AUC(0-t) (120 mg, Intermittent Dose Schedule A, 120 mg, Day -3, 4 patients, read-out: AUC0–24 Geometric Mean (%CV)) was 5590 ng·h/mL, the Cmax (120 mg, Intermittent Dose Schedule A, 120 mg, Day -3, 4 patients) was 549 ng/mL and the Tmax (120 mg, Intermittent Dose Schedule A, 120 mg, Day -3, 4 patients, read-out: Tmax Median, (Range)) was 3 h. It also gave an AUC(0-t) (120 mg, Intermittent Dose Schedule B, 120 mg, Day 1, 3 patients, read-out: AUC0–8 Geometric Mean (%CV)) of 1530 ng·h/mL, an AUC(0-t) (120 mg, Intermittent Dose Schedule B, 120 mg, Day 1, 3 patients, read-out: AUC0–24 Geometric Mean (%CV)) of 3340 ng·h/mL and a Cmax (120 mg, Intermittent Dose Schedule B, 120 mg, Day 1, 3 patients) of 471 ng/mL. For the same molecule, the Tmax (120 mg, Intermittent Dose Schedule B, 120 mg, Day 1, 3 patients, read-out: Tmax Median, (Range)) was 1 h, the AUC(0-t) (120 mg, Intermittent Dose Schedule B, 120 mg, Day 8, 3 patients, read-out: AUC0–8 Geometric Mean (%CV)) was 2210 ng·h/mL and the AUC(0-t) (120 mg, Intermittent Dose Schedule B, 120 mg, Day 8, 3 patients, read-out: AUC0–24 Geometric Mean (%CV)) was 5850 ng·h/mL. The Cmax (120 mg, Intermittent Dose Schedule B, 120 mg, Day 8, 3 patients) was 594 ng/mL, the Tmax (120 mg, Intermittent Dose Schedule B, 120 mg, Day 8, 3 patients, read-out: Tmax Median, (Range)) was 1 h and the AUC(0-t) (140 mg, Intermittent Dose Schedule A, 140 mg, Day 8, 6 patients, read-out: AUC0–8 Geometric Mean (%CV)) was 3220 ng·h/mL. The Cmax (140 mg, Intermittent Dose Schedule A, 140 mg, Day 8, 6 patients) was 923 ng/mL, the Tmax (140 mg, Intermittent Dose Schedule A, 140 mg, Day 8, 6 patients, read-out: Tmax Median, (Range)) was 1 h and the AUC(0-t) (140 mg, Intermittent Dose Schedule A, 140 mg, Day 8, n = 3, read-out: AUC0–24 Geometric Mean (%CV)) was 7590 ng·h/mL. The AUC(0-t) (140 mg, Intermittent Dose Schedule A, 140 mg, Day -3, 6 patients, read-out: AUC0–8 Geometric Mean (%CV)) was 2580 ng·h/mL, the AUC(0-t) (140 mg, Intermittent Dose Schedule A, 140 mg, Day -3, 6 patients, read-out: AUC0–24 Geometric Mean (%CV)) was 5810 ng·h/mL and the Cmax (140 mg, Intermittent Dose Schedule A, 140 mg, Day -3, 6 patients) was 709 ng/mL. The Tmax (140 mg, Intermittent Dose Schedule A, 140 mg, Day -3, 6 patients, read-out: Tmax Median, (Range)) was 1 h, the AUC(0-t) (140 mg, Intermittent Dose Schedule B, 140 mg, Day 1, 3 patients, read-out: AUC0–8 Geometric Mean (%CV)) was 4150 ng·h/mL and the AUC(0-t) (140 mg, Intermittent Dose Schedule B, 140 mg, Day 1, 3 patients, read-out: AUC0–24 Geometric Mean (%CV)) was 9740 ng·h/mL. It also gave a Cmax (140 mg, Intermittent Dose Schedule B, 140 mg, Day 1, 3 patients) of 1010 ng/mL, a Tmax (140 mg, Intermittent Dose Schedule B, 140 mg, Day 1, 3 patients, read-out: Tmax Median, (Range)) of 1 h and an AUC(0-t) (140 mg, Intermittent Dose Schedule B, 140 mg, Day 8, 3 patients, read-out: AUC0–8 Geometric Mean (%CV)) of 5160 ng·h/mL. The Cmax (140 mg, Intermittent Dose Schedule B, 140 mg, Day 8, 3 patients) was 1560 ng/mL, the Tmax (140 mg, Intermittent Dose Schedule B, 140 mg, Day 8, 3 patients, read-out: Tmax Median, (Range)) was 1 h and the AUC(0-t) (140 mg, Intermittent Dose Schedule B, 140 mg, Day 8, n = 2, read-out: AUC0–24 Geometric Mean (%CV)) was 12600 ng·h/mL. It also gave an AUC(0-t) (160 mg, Intermittent Dose Schedule A, 160 mg, Day 8, 3 patients, read-out: AUC0–8 Geometric Mean (%CV)) of 4080 ng·h/mL, an AUC(0-t) (160 mg, Intermittent Dose Schedule A, 160 mg, Day 8, 3 patients, read-out: AUC0–24 Geometric Mean (%CV)) of 11100 ng·h/mL and a Cmax (160 mg, Intermittent Dose Schedule A, 160 mg, Day 8, 3 patients) of 857 ng/mL. The Tmax (160 mg, Intermittent Dose Schedule A, 160 mg, Day 8, 3 patients, read-out: Tmax Median, (Range)) was 2 h, the AUC(0-t) (160 mg, Intermittent Dose Schedule A, 160 mg, Day -3, 3 patients, read-out: AUC0–8 Geometric Mean (%CV)) was 2480 ng·h/mL and the AUC(0-t) (160 mg, Intermittent Dose Schedule A, 160 mg, Day -3, 3 patients, read-out: AUC0–24 Geometric Mean (%CV)) was 5830 ng·h/mL. The Cmax (160 mg, Intermittent Dose Schedule A, 160 mg, Day -3, 3 patients) was 539 ng/mL, the Tmax (160 mg, Intermittent Dose Schedule A, 160 mg, Day -3, 3 patients, read-out: Tmax Median, (Range)) was 1 h and the AUC(0-t) (160 mg, Intermittent Dose Schedule B, 160 mg, Day 1, 3 patients, read-out: AUC0–8 Geometric Mean (%CV)) was 1050 ng·h/mL. For the same molecule, the AUC(0-t) (160 mg, Intermittent Dose Schedule B, 160 mg, Day 1, 3 patients, read-out: AUC0–24 Geometric Mean (%CV)) was 3700 ng·h/mL, the Cmax (160 mg, Intermittent Dose Schedule B, 160 mg, Day 1, 3 patients) was 317 ng/mL and the Tmax (160 mg, Intermittent Dose Schedule B, 160 mg, Day 1, 3 patients, read-out: Tmax Median, (Range)) was 12 h. The AUC(0-t) (160 mg, Intermittent Dose Schedule B, 160 mg, Day 8, 3 patients, read-out: AUC0–8 Geometric Mean (%CV)) was 1770 ng·h/mL, the Cmax (160 mg, Intermittent Dose Schedule B, 160 mg, Day 8, 3 patients) was 325 ng/mL and the Tmax (160 mg, Intermittent Dose Schedule B, 160 mg, Day 8, 3 patients, read-out: Tmax Median, (Range)) was 8 h. It also gave an AUC(0-t) (200 mg, Intermittent Dose Schedule A, 200 mg, Day 8, 4 patients, read-out: AUC0–8 Geometric Mean (%CV)) of 4460 ng·h/mL, a Tmax (200 mg, Intermittent Dose Schedule A, 200 mg, Day 8, 4 patients, read-out: Tmax Median, (Range)) of 2 h and an AUC(0-t) (200 mg, Intermittent Dose Schedule A, 200 mg, Day 8, n = 2, read-out: AUC0–24 Geometric Mean (%CV)) of 15900 ng·h/mL. For the same molecule, the AUC(0-t) (200 mg, Intermittent Dose Schedule A, 200 mg, Day -3, 4 patients, read-out: AUC0–8 Geometric Mean (%CV)) was 3480 ng·h/mL, the AUC(0-t) (200 mg, Intermittent Dose Schedule A, 200 mg, Day -3, 4 patients, read-out: AUC0–24 Geometric Mean (%CV)) was 7050 ng·h/mL and the Cmax (200 mg, Intermittent Dose Schedule A, 200 mg, Day -3, 4 patients) was 1030 ng/mL. The Tmax (200 mg, Intermittent Dose Schedule A, 200 mg, Day -3, 4 patients, read-out: Tmax Median, (Range)) was 2 h, the AUC(0-t) (200 mg, Intermittent Dose Schedule B, 200 mg, Day 1, 4 patients, read-out: AUC0–8 Geometric Mean (%CV)) was 3190 ng·h/mL and the AUC(0-t) (200 mg, Intermittent Dose Schedule B, 200 mg, Day 1, 4 patients, read-out: AUC0–24 Geometric Mean (%CV)) was 8010 ng·h/mL. The Cmax (200 mg, Intermittent Dose Schedule B, 200 mg, Day 1, 4 patients) was 734 ng/mL, the Tmax (200 mg, Intermittent Dose Schedule B, 200 mg, Day 1, 4 patients, read-out: Tmax Median, (Range)) was 1.5 h and the AUC(0-t) (200 mg, Intermittent Dose Schedule B, 200 mg, Day 8, 4 patients, read-out: AUC0–8 Geometric Mean (%CV)) was 5800 ng·h/mL. For the same molecule, the Cmax (200 mg, Intermittent Dose Schedule B, 200 mg, Day 8, 4 patients) was 1200 ng/mL, the Tmax (200 mg, Intermittent Dose Schedule B, 200 mg, Day 8, 4 patients, read-out: Tmax Median, (Range)) was 1.5 h and the AUC(0-t) (200 mg, Intermittent Dose Schedule B, 200 mg, Day 8, n = 3, read-out: AUC0–24 Geometric Mean (%CV)) was 14700 ng·h/mL. For the same molecule, the Tmax (after the first dose, all three dosing schedules, range, 0.5–48 h, read-out: Median time to reach the peak plasma concentration (Tmax)) was 2 h and the Dose-exposure relationship (intermittent doses higher than 140 mg) was “less than linear dose-exposure relationship”.
